Test results taken from ChEMBL document CHEMBL5715260, “Selectivity Literature for EUbOPEN Chemogenomic Library” (2024).

Assays:
[1] = target: T1, Hepatocyte nuclear factor 4-alpha (Homo sapiens) (UniProt P41235); assay: Selectivity interaction (Reporter gene assay) EUB0001149a HNF4A; set-up: recommended concentration 1 uM
T1 sequence (whole entry): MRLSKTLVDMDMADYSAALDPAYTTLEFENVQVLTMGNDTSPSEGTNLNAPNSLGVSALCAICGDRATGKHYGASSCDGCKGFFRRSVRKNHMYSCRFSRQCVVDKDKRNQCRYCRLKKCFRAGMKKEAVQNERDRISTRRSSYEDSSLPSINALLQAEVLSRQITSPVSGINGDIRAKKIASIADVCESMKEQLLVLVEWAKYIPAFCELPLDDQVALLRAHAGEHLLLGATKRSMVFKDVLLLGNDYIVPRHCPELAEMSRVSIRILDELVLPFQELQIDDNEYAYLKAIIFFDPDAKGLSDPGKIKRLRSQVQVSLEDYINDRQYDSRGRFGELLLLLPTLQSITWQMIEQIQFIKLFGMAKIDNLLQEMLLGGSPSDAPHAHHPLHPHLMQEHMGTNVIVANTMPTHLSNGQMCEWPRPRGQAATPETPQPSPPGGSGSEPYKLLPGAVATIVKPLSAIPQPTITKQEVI

[2] = target: Nuclear receptor subfamily 4immunitygroup A member 1 (Homo sapiens) (UniProt P22736); assay: Selectivity interaction (Reporter gene assay) EUB0001149a NR4A1; set-up: recommended concentration 1 uM
[3] = target: Nuclear receptor subfamily 2 group E member 1 (Homo sapiens) (UniProt Q9Y466); assay: Selectivity interaction (Reporter gene assay) EUB0001149a NR2E1; set-up: recommended concentration 1 uM
[4] = target: T2, Nuclear receptor subfamily 2 group C member 1 (Homo sapiens) (UniProt P13056); assay: Selectivity interaction (Reporter gene assay) EUB0001149a NR2C1; set-up: recommended concentration 1 uM
T2 sequence (whole entry): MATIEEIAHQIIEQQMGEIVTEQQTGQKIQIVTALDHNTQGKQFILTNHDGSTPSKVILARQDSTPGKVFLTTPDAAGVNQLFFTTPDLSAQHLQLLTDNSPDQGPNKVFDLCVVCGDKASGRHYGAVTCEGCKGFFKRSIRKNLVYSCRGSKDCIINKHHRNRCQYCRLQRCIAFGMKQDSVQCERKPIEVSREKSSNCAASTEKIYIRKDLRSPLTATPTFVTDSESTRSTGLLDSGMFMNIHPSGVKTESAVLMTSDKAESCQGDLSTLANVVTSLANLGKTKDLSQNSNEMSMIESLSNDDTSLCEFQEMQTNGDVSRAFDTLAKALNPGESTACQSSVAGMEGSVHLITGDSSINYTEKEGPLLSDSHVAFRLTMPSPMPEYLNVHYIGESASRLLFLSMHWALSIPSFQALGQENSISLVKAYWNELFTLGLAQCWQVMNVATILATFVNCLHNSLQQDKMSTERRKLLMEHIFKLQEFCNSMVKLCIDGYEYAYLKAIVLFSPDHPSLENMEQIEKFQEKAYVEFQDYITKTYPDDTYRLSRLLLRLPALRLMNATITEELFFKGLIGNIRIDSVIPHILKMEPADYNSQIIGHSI

[5] = target: Steroidogenic factor 1 (Homo sapiens) (UniProt Q13285); assay: Selectivity interaction (Reporter gene assay) EUB0001149a NR5A1; set-up: recommended concentration 1 uM
[6] = target: T3, Alpha trans-inducing protein (Human alphaherpesvirus 1) (UniProt A0A5J6DW59); assay: Selectivity interaction (Reporter gene assay) EUB0001149a UL48; set-up: recommended concentration 1 uM
[7] = target: Peroxisome proliferator-activated receptor alpha (Homo sapiens) (UniProt Q07869); assay: Selectivity interaction (Reporter gene assay) EUB0001149a PPARA; set-up: recommended concentration 1 uM; conditions: screened at recom. conc., Selectivity number of off-targets 1.0, Selectivity number of targets 19.0, Source Knowledge inhouse
[8] = target: T4, Retinoic acid receptor RXR-alpha (Homo sapiens) (UniProt P19793); assay: Selectivity interaction (Reporter gene assay) EUB0001149a RXRA; set-up: recommended concentration 1 uM; conditions: reference bexarotene 1 uM, Selectivity number of off-targets 0.0, Selectivity number of targets 1.0, Source Knowledge inhouse
T4 sequence (whole entry): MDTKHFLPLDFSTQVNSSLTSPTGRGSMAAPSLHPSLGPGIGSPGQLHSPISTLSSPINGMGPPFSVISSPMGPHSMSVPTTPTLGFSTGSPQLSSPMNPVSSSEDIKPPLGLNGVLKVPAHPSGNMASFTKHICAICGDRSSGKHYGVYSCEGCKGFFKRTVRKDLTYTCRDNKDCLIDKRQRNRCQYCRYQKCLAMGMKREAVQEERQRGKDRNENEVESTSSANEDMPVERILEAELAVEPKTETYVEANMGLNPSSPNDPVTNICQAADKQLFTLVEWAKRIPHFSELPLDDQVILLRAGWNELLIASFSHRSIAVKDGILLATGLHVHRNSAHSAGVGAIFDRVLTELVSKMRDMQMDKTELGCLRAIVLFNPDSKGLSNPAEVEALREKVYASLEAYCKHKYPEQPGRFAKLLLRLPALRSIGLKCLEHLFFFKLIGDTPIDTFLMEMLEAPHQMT

[9] = target: Nuclear receptor subfamily 4immunitygroup A member 1 (Homo sapiens) (UniProt P22736); assay: Selectivity interaction (Reporter gene assay) EUB0001156a NR4A1; set-up: recommended concentration 1 uM
[10] = target: T3, Alpha trans-inducing protein (Human alphaherpesvirus 1); assay: Selectivity interaction (Reporter gene assay) EUB0001156a UL48; set-up: recommended concentration 1 uM; conditions: screened at recom. conc., Selectivity number of off-targets 0.0, Selectivity number of targets 1.0, Source Knowledge inhouse
[11] = target: T4, Retinoic acid receptor RXR-alpha (Homo sapiens); assay: Selectivity interaction (Reporter gene assay) EUB0001156a RXRA; set-up: recommended concentration 1 uM; conditions: reference bexarotene 1 uM, Selectivity number of off-targets 0.0, Selectivity number of targets 1.0, Source Knowledge inhouse
[12] = target: Nuclear receptor subfamily 2 group E member 1 (Homo sapiens) (UniProt Q9Y466); assay: Selectivity interaction (Reporter gene assay) EUB0001156a NR2E1; set-up: recommended concentration 1 uM
[13] = target: T2, Nuclear receptor subfamily 2 group C member 1 (Homo sapiens); assay: Selectivity interaction (Reporter gene assay) EUB0001156a NR2C1; set-up: recommended concentration 1 uM
[14] = target: Steroidogenic factor 1 (Homo sapiens) (UniProt Q13285); assay: Selectivity interaction (Reporter gene assay) EUB0001156a NR5A1; set-up: recommended concentration 1 uM
[15] = target: T1, Hepatocyte nuclear factor 4-alpha (Homo sapiens); assay: Selectivity interaction (Reporter gene assay) EUB0001156a HNF4A; set-up: recommended concentration 1 uM
[16] = target: T2, Nuclear receptor subfamily 2 group C member 1 (Homo sapiens); assay: Selectivity interaction (Reporter gene assay) EUB0001155a NR2C1; set-up: recommended concentration 10 uM; conditions: screened at recom. conc., Selectivity number of off-targets 2.0, Selectivity number of targets 5.0, Source Knowledge inhouse
[17] = target: T4, Retinoic acid receptor RXR-alpha (Homo sapiens); assay: Selectivity interaction (Reporter gene assay) EUB0001155a RXRA; set-up: recommended concentration 10 uM; conditions: reference bexarotene 1 uM, Selectivity number of off-targets 0.0, Selectivity number of targets 1.0, Source Knowledge inhouse
[18] = target: Nuclear receptor subfamily 2 group E member 1 (Homo sapiens) (UniProt Q9Y466); assay: Selectivity interaction (Reporter gene assay) EUB0001155a NR2E1; set-up: recommended concentration 10 uM; conditions: screened at recom. conc., Selectivity number of off-targets 2.0, Selectivity number of targets 5.0, Source Knowledge inhouse
[19] = target: T1, Hepatocyte nuclear factor 4-alpha (Homo sapiens); assay: Selectivity interaction (Reporter gene assay) EUB0001155a HNF4A; set-up: recommended concentration 10 uM
[20] = target: Nuclear receptor subfamily 4immunitygroup A member 1 (Homo sapiens) (UniProt P22736); assay: Selectivity interaction (Reporter gene assay) EUB0001155a NR4A1; set-up: recommended concentration 10 uM
[21] = target: Steroidogenic factor 1 (Homo sapiens) (UniProt Q13285); assay: Selectivity interaction (Reporter gene assay) EUB0001155a NR5A1; set-up: recommended concentration 10 uM
[22] = target: T3, Alpha trans-inducing protein (Human alphaherpesvirus 1); assay: Selectivity interaction (Reporter gene assay) EUB0001155a UL48; set-up: recommended concentration 10 uM
[23] = target: Nuclear receptor subfamily 2 group E member 1 (Homo sapiens) (UniProt Q9Y466); assay: Selectivity interaction (Reporter gene assay) EUB0001145aNa NR2E1; set-up: recommended concentration 1 uM
[24] = target: T1, Hepatocyte nuclear factor 4-alpha (Homo sapiens); assay: Selectivity interaction (Reporter gene assay) EUB0001145aNa HNF4A; set-up: recommended concentration 1 uM
[25] = target: T3, Alpha trans-inducing protein (Human alphaherpesvirus 1); assay: Selectivity interaction (Reporter gene assay) EUB0001145aNa UL48; set-up: recommended concentration 1 uM
[26] = target: T2, Nuclear receptor subfamily 2 group C member 1 (Homo sapiens); assay: Selectivity interaction (Reporter gene assay) EUB0001145aNa NR2C1; set-up: recommended concentration 1 uM
[27] = target: Nuclear receptor subfamily 4immunitygroup A member 1 (Homo sapiens) (UniProt P22736); assay: Selectivity interaction (Reporter gene assay) EUB0001145aNa NR4A1; set-up: recommended concentration 1 uM
[28] = target: Steroidogenic factor 1 (Homo sapiens) (UniProt Q13285); assay: Selectivity interaction (Reporter gene assay) EUB0001145aNa NR5A1; set-up: recommended concentration 1 uM
[29] = target: T4, Retinoic acid receptor RXR-alpha (Homo sapiens); assay: Selectivity interaction (Reporter gene assay) EUB0001145aNa RXRA; set-up: recommended concentration 1 uM; conditions: reference bexarotene 1 uM, Selectivity number of off-targets 0.0, Selectivity number of targets 1.0, Source Knowledge inhouse
[30] = target: T4, Retinoic acid receptor RXR-alpha (Homo sapiens); assay: Selectivity interaction (Reporter gene assay) EUB0001148a RXRA; set-up: recommended concentration 1 uM
[31] = target: Nuclear receptor subfamily 4immunitygroup A member 1 (Homo sapiens) (UniProt P22736); assay: Selectivity interaction (Reporter gene assay) EUB0001148a NR4A1; set-up: recommended concentration 1 uM
[32] = target: T3, Alpha trans-inducing protein (Human alphaherpesvirus 1); assay: Selectivity interaction (Reporter gene assay) EUB0001148a UL48; set-up: recommended concentration 1 uM
[33] = target: T2, Nuclear receptor subfamily 2 group C member 1 (Homo sapiens); assay: Selectivity interaction (Reporter gene assay) EUB0001148a NR2C1; set-up: recommended concentration 1 uM
[34] = target: T1, Hepatocyte nuclear factor 4-alpha (Homo sapiens); assay: Selectivity interaction (Reporter gene assay) EUB0001148a HNF4A; set-up: recommended concentration 1 uM
[35] = target: Steroidogenic factor 1 (Homo sapiens) (UniProt Q13285); assay: Selectivity interaction (Reporter gene assay) EUB0001148a NR5A1; set-up: recommended concentration 1 uM
[36] = target: Nuclear receptor subfamily 2 group E member 1 (Homo sapiens) (UniProt Q9Y466); assay: Selectivity interaction (Reporter gene assay) EUB0001148a NR2E1; set-up: recommended concentration 1 uM

Steroidogenic factor 1 (Homo sapiens), sequence (Q13285 whole entry): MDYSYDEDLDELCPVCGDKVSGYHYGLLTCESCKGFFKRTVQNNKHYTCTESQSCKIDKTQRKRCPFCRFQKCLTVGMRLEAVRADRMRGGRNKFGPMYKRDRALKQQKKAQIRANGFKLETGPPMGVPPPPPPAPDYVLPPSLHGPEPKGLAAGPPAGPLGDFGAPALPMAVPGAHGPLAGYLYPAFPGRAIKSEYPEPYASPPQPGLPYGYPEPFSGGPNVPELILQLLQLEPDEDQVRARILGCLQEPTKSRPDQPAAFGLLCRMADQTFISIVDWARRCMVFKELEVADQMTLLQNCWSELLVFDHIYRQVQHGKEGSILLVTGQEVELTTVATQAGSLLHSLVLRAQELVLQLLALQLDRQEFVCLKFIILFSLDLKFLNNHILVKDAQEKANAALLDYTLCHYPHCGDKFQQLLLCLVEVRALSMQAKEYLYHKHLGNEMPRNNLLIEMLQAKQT
Nuclear receptor subfamily 4immunitygroup A member 1 (Homo sapiens), sequence (P22736 whole entry): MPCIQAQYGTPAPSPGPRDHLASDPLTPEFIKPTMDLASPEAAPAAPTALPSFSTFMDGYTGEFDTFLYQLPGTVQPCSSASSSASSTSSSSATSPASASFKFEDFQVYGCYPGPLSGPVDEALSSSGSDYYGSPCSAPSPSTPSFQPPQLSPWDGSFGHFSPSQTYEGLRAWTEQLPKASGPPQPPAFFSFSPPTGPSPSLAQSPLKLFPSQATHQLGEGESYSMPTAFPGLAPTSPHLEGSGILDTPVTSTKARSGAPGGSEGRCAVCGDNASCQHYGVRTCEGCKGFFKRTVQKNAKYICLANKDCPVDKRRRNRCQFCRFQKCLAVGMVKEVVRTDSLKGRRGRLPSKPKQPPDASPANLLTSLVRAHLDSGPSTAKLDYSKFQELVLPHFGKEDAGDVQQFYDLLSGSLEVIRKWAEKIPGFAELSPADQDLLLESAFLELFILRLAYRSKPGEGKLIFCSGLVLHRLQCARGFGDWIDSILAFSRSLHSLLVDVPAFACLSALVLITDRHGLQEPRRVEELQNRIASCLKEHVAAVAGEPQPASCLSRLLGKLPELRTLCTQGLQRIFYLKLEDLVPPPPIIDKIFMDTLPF
T3 sequence (A0A5J6DW59 as listed by the source): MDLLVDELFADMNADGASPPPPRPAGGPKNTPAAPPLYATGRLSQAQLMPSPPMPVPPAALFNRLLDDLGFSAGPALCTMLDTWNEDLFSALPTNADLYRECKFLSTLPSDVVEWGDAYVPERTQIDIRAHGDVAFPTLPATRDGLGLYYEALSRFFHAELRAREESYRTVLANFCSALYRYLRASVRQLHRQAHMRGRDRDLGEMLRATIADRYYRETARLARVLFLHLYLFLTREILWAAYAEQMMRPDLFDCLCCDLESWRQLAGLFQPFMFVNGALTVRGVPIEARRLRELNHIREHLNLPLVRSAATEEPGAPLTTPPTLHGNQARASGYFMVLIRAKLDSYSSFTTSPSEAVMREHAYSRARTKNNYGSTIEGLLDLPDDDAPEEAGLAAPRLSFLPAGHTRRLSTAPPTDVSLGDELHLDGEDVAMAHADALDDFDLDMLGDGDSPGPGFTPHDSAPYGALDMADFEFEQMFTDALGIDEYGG
Nuclear receptor subfamily 2 group E member 1 (Homo sapiens), sequence (Q9Y466 whole entry): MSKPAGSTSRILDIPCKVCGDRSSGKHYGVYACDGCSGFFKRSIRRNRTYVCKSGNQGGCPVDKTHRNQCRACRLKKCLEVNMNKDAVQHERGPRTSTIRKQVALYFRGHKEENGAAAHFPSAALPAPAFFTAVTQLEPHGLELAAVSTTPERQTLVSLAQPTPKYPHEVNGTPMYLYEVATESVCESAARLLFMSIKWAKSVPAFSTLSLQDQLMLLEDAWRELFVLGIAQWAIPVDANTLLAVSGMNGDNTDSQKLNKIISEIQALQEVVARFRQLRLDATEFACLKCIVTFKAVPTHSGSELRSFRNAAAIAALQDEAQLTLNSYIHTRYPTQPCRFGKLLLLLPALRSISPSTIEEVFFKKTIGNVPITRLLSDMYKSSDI
Peroxisome proliferator-activated receptor alpha (Homo sapiens), sequence (Q07869 whole entry): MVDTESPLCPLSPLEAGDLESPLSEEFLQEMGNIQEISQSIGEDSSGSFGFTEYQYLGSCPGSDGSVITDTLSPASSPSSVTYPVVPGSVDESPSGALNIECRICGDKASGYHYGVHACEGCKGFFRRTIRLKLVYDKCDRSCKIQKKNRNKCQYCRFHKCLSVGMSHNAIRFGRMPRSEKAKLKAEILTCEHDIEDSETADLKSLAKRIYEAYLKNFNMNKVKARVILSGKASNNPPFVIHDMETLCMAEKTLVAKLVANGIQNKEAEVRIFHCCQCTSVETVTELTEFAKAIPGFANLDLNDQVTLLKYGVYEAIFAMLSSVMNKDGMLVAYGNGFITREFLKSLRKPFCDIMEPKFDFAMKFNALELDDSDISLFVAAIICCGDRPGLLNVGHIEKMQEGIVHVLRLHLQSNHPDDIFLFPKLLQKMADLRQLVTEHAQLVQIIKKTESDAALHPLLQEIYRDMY

Question: How did the Fold activation [1] turn out when O=C(O)CCCc1cc2cc(Cl)ccc2n1S(=O)(=O)c1ccc2ncsc2c1 was run?
Answer: 1.19

Question: What about the Fold activation [2] of the same molecule?
Answer: 1.09

Question: What about the Remaining activity [3] of the same molecule?
Answer: 0.755

Question: What about the Remaining activity [4] of the same molecule?
Answer: 0.743

Question: What about the Fold activation [5] of the same molecule?
Answer: 1.16

Question: And the P-value [6]?
Answer: 0.0075

Question: What about the Fold activation [7] of the same molecule?
Answer: 5.01

Question: What about the Relative activation [8] of the same molecule?
Answer: 1.07%

Question: How did the Remaining activity [9] turn out when O=C(Nc1ccc(C(O)(C(F)(F)F)C(F)(F)F)cc1)c1ccc(C(F)(F)F)cc1 was run?
Answer: 0.858

Question: And the P-value [10]?
Answer: 0.167

Question: And the Relative activation [11]?
Answer: 0.302%

Question: What about the Remaining activity [12] of the same molecule?
Answer: 0.903

Question: What about the Fold activation [13] of the same molecule?
Answer: 1.1

Question: What about the Fold activation [14] of the same molecule?
Answer: 1.1

Question: What about the Fold activation [15] of the same molecule?
Answer: 1.11

Question: How did the Remaining activity [16] turn out when CCCCCNC(=O)N1CCC(CN(Cc2ccc(Cl)cc2)Cc2ccc([N+](=O)[O-])s2)C1 (stereo unspecified) was run?
Answer: 0.487

Question: And the Relative activation [17]?
Answer: 0.1%

Question: And the Remaining activity [18]?
Answer: 0.483

Question: And the Remaining activity [19]?
Answer: 0.711

Question: What about the Fold activation [20] of the same molecule?
Answer: 1.24

Question: And the Fold activation [21]?
Answer: 1.16

Question: And the P-value [22]?
Answer: 1.75e-05

Question: What does the source list for CCO[C@H](COc1ccc(C(F)(F)F)cc1)CSc1ccc(OCC(=O)O)c(C)c1?
Answer: Fold activation [23]: 1.14; Fold activation [24]: 1.17; P-value [25]: 0.0052; Fold activation [26]: 1.29; Fold activation [27]: 1.09; Fold activation [28]: 1.13; Relative activation [29]: 0.702%

Question: What does the source list for Cc1cc(SCc2sc(-c3ccc(C(F)(F)F)cc3)nc2C)ccc1OCC(=O)O?
Answer: Relative activation [30]: 0.766%; Fold activation [31]: 1.02; P-value [32]: 0.0001; Fold activation [33]: 1.24; Fold activation [34]: 1.1; Fold activation [35]: 1.05; Fold activation [36]: 1.05
